Measured values: patent US12227513B2, “Salt and crystalline form of furopyrimidine compound and pharmaceutical use thereof” (TIUMBIO CO., LTD., priority 2018, dated 2025)
Structures can show the parent of a compound that is named as a salt.

Experiments:
Type in all cases: physicochemical
[1] = Hygroscopicity (weight increase after 1 week at 25° C. and 60% or 90% relative humidity); settings: weight increase relative to the initial weight
Method: Each of the salts (dibesylate salt, dihydrochloride salt, dioxalate salt, sodium salt, potassium salt) prepared in the above examples was left to stand at 25° C. and 60% or 90% relative humidity for 1 week, and a hygroscopicity thereof was measured. Here, the hygroscopicity was measured as a percentage of weight increase, which was measured after the hygroscopicity test, relative to the initial weight.

[2] = Chemical purity after standing at 80° C. (HPLC; lactam-based related substances and main compound); settings: for Increase in related substances: After 20 hours at 80° C., peak area of lactam-based related substances relative to main compound (HPLC); for Residual amount of main compound: After 21 days at 80° C., HPLC
Method: (§1) Each of the salts (dibesylate salt, dihydrochloride salt, sodium salt, potassium salt) prepared in the above examples was left to stand at 80° C. for 20 hours, and then an amount of change in related substances was measured. In addition, each of the salts was left to stand at 80° C. for 21 days, and then a residual amount of the main compound (compound of Formula 1) was measured. For measurement of the related substances and the main compound, samples were taken before and after exposure to 80° C., dissolved in a diluted solution at a concentration of 1 mg/mL, and then subjected to high-performance liquid chromatography (HPLC). From the resulting data, an increase in related substances was calculated by measuring a peak area of lactam-based related substances relative to a peak area of the main compound. In addition, for comparison, the same test was also carried out for the free base of the compound of Formula 1.

[3] = Chemical purity after storage for 3 months at 40° C. and 75% relative humidity (HPLC)
Method: as §1
In addition, in a similar manner, the dibesylate salt prepared in the above example was stored for 3 months (at 40° C. and 75% relative humidity), and amounts of change in lactam-based related substances and main compound were measured.

[4] = Water solubility (distilled water at 25° C., HPLC); settings: supersaturated solution
Method: The water solubility was obtained as follows. Each of the free base and the dibesylate salt was dissolved in distilled water at 25° C. to make it supersaturated. Then, the solution was taken and diluted 20-fold with a diluent for dissolution. Then, the resultant was subjected to high-performance liquid chromatography (HPLC). In the resulting data, the dissolved amount was calculated from a peak area of the main compound.

[5] = Stability of drug product (oral capsule, 50° C. and 80% humidity for 3 weeks, HPLC); settings: 50° C. and 80% relative humidity for 3 weeks
Method: Using each of the salts (dibesylate salt, dihydrochloride salt, sodium salt, potassium salt) prepared in the above examples, a drug product was prepared in the form of an oral capsule with the excipient composition as shown in Table 6 below. The drug product was left to stand at 50° C. and 80% humidity for 3 weeks, and then an amount of change in related substances was measured. For measurement of related substances, the contents were separated from the capsule, and then all of them were placed in a diluted solution so that the active ingredient was brought to a concentration of 1 mg/mL. Shaking was performed for 5 minutes. The supernatant was taken and filtered. The filtrate was taken and subjected to high-performance liquid chromatography (HPLC).
From the resulting data, percentages of a peak area of the main compound (active ingredient) and a peak area of the lactam-based related substances were measured. In addition, for comparison, the same test was also carried out for the free base of the compound of Formula 1.

[6] = Evaluation of stability of crystal form (PXRD after drying in vacuo at 50° C.); settings: after being dried in vacuo at 50° C.
Method: The solid product (crystalline form A) obtained in Example 1 was subjected to powder X-ray diffraction (PXRD). The results are shown in FIG. 1 and Table 8 below. • Instrument: Maker Bruker AXS, D8 FOCUS • Conditions: 40 kV, 30 mA, 2θ/θ scan range of 3° to 50°
The solid product (crystalline form A) obtained in Example 1 was dried in vacuo at 50° C., and then subjected to powder X-ray diffraction as described above. The results are illustrated in FIG. 4.
On the other hand, using 1,4-dioxane as a solvent, a solid product (crystalline form B) was obtained in a similar manner as in Example 1, and subjected to powder X-ray diffraction as described above.

[7] = Physical state of the product as obtained (foam, moistening); settings: observation in words
Text: First, the compound of Formula 1 was not solidified, which posed great difficulty in controlling a residual solvent.

[8] = After 3 months at 40° C. and 75% relative humidity

| Compound | Hygroscopicity ([1]; 60% RH) [wt %] | Hygroscopicity ([1]; 90% RH) [wt %] | Increase in related substances [2] [%] | Residual amount of main compound [2] [%] | other results |
| --- | --- | --- | --- | --- | --- |
| O=C(O)CCCN[C@@H](Cn1c(=O)c2c(n(Cc3c(F)cccc3C(F)(F)F)c1=O)COC21CCN(Cc2ccc(C(F)(F)F)o2)CC1)c1ccccc1 [Dibesylate salt] | 0.06 | 0.9 | 0.0 | 99.6 | Hygroscopicity ([1]; 90% RH, listed as dibesylate salt): very low hygroscopicity; Increase in related substances ([2]; listed as dibesylate salt): did not generate any related substances; Chemical purity: Related substances [3, 8]: 0.03%; Chemical purity: main compound (Dibesylate salt) [3, 8]: 99.6%; Chemical purity: Related substances ([3]; Initial): 0.02%; Chemical purity: main compound (Dibesylate salt) ([3]; Initial): 99.7%; Water solubility (25° C.) [4]: 25.77 mg/mL; Water solubility (25° C.) ([4]; listed as dibesylate salt): greatly improved water solubility; Stability of drug product (in words) [5]: very good stability; Stability of crystal structure (PXRD) ([6]; listed as crystalline form A): maintained the same crystal structure as its initial one |
| O=C(O)CCCN[C@@H](Cn1c(=O)c2c(n(Cc3c(F)cccc3C(F)(F)F)c1=O)COC21CCN(Cc2ccc(C(F)(F)F)o2)CC1)c1ccccc1 [Dihydrochloride salt] | 2.1 | 16 | 0.9 | 69.4 | – |
| O=C(O)CCCN[C@@H](Cn1c(=O)c2c(n(Cc3c(F)cccc3C(F)(F)F)c1=O)COC21CCN(Cc2ccc(C(F)(F)F)o2)CC1)c1ccccc1 [Dioxalate salt] | 3.5 | 19 | – | – | – |
| O=C(O)CCCN[C@@H](Cn1c(=O)c2c(n(Cc3c(F)cccc3C(F)(F)F)c1=O)COC21CCN(Cc2ccc(C(F)(F)F)o2)CC1)c1ccccc1 [Free base, (R)-4-((2-(1-(2-fluoro-6-(trifluoromethyl)benzyl)-2,4-dioxo-1′-((5-(trifluoromethyl)furan-2-yl)methyl)-1H-spiro[furo[3,4-d]pyrimidine-5,4′-piperidine]-3 (2H,4H,7H)-yl)-1-phenylethyl)amino)butanoic acid] | – | – | 79.0 | 1.4 | Increase in related substances ([2]; listed as free base): about 79%; Water solubility (25° C.) [4]: 0.19 mg/mL; Water solubility (25° C.) ([4]; listed as free base): low water solubility; Moistening of the product obtained in the form of a foam [7]: easily moistened and turned into a sticky oil form |
| O=C(O)CCCN[C@@H](Cn1c(=O)c2c(n(Cc3c(F)cccc3C(F)(F)F)c1=O)COC21CCN(Cc2ccc(C(F)(F)F)o2)CC1)c1ccccc1 [Potassium salt] | 9.2 | 38 | 0.4 | 72.6 | – |
| O=C(O)CCCN[C@@H](Cn1c(=O)c2c(n(Cc3c(F)cccc3C(F)(F)F)c1=O)COC21CCN(Cc2ccc(C(F)(F)F)o2)CC1)c1ccccc1 [Sodium salt] | 8.7 | 35 | 0.6 | 77.0 | – |
| O=C(O)CCCN[C@@H](Cn1c(=O)c2c(n(Cc3c(F)cccc3C(F)(F)F)c1=O)COC21CCN(Cc2ccc(C(F)(F)F)o2)CC1)c1ccccc1 [crystalline form B] | – | – | – | – | Stability of crystal structure (PXRD) [6]: did not maintain some of its initial crystal structure |
| O=C(O)CCCN[C@@H](Cn1c(=O)c2c(n(Cc3c(F)cccc3C(F)(F)F)c1=O)COC21CCN(Cc2ccc(C(F)(F)F)o2)CC1)c1ccccc1 [diphosphate salt, reference compound] | – | – | – | – | Moistening of the product obtained in the form of a foam [7]: easily moistened and turned into a sticky oil form |
